From patent publication US5688824A, “Use of leflunomide to prevent or control xenograft rejection” (priority 1996, dated 1997)
Entries after “also recorded” stand apart in the source; their conditions may differ. Like-named read-outs stand apart in the source and are kept apart here.

Key:
[1] = tested on: BN heterotopic heart grafts; settings: oral 15 mg/kg/day, cited from earlier work
EGF receptor kinase = settings: cited from earlier work
[2] = tested on: cardiac allografts, established acute rejection; settings: cited from earlier work; for mean survival time of the cardiac allografts: 7 days
[3] = tested on: chronic rejection of rat cardiac allografts; assay: chronic rejection of rat cardiac allografts (LEW to F-344), histologic scoring of arterial intimal thickening; format: in vivo
Protocol: These rats share major histocompatibility antigens but differ at minor histocompatibility loci. A short course of immunosuppression results in a slow chronic rejection that gradually destroys the graft, with the appearance of reproducible histology similar to the chronic rejection seen in humans.
Donor and recipient animals were anesthetized with Ketamine/Xylazine (Fort Dodge, Iowa) 100/5 mg/kg. […] Cardiac allograft survival was determined by daily abdominal palpation, and rejection was considered complete upon cessation of heart beat.
The three control groups were given no treatment and were sacrificed at designated 30-day intervals to observe the development of chronic rejection. The treatment groups were administered daily doses of leflunomide or leflunomide and CsA according to Table 1 below, beginning at day 30 and continuing to day 60 or day 90. CsA in oral form (Sandimmune, Sandoz Corporation, East Hanover, N.J.) was administered at 2, 5 or 10 mg/kg to rats by gavage.
Upon sacrifice, the heart allograft was removed, serially sectioned into approximately 2-mm slices, and fixed in 10% buffered formalin overnight. The sections were embedded in paraffin and stained with hematoxylin and eosin, Verhoeff's elastin stain and Masson's trichrome stain to evaluate pathologic changes and to score graft arterial intimal thickening. The remaining sections were immunostained using standard indirect avidin-biotin techniques (Vectastain ABC-Elite, Vector Laboratories, Burlingame, Calif.) with monoclonal antibodies against smooth muscle actin (DAKO, Carpin Terra, Calif.) to evaluate intimal smooth muscle proliferation, and with polyclonal antibodies against phosphotyrosine to evaluate tyrosine kinase activity by counting phosphotyrosine positive cells. […] Allospecific antibody titres among the groups were compared using the unpaired Student's t-test.
The sections were examined by light microscopy, and 20 to 70 arteries in each allograft were blindly scored for severity of arterial intimal thickening according to the general standard of Adams et al., supra, using the following histological scores: a score of 0 was a normal artery; a score of 1, intimal thickening up to approximately 50% of the perimeter of the vessel, with less than 20% luminal compromise; a score of 2, intimal thickening involving between 50% and 100% of the perimeter of the vessel, with less than 20% luminal compromise; score of 3, circumferential intimal thickening, with more than 20% but less than 50% luminal compromise; score of 4, circumferential intimal thickening, with more than 50% but less than 80% luminal compromise; score of 5, circumferential intimal thickening, with more than 80% luminal compromise. […] Statistical comparisons of histological scores were performed using the Mann-Whitney U--Wilcoxon Rank Sum W Test.

[4] = tested on: tubulointerstitial nephritis; settings: BN rats, cited from earlier work
cardiac allograft = settings: cited from earlier work
[5] = tested on: anti-donor specific IgM and IgG; assay: anti-donor specific IgM and IgG titers by flow cytometry, cardiac xenografts; format: in vivo, rat; settings: leflunomide alone
Protocol: Serum samples were obtained from the animals by drawing 0.2 ml of blood from the tail vein at two day intervals, for the first eight days after transplantation, and then at seven day intervals after day 14. Serum samples were stored at -80° C. The anti-donor specific IgM and IgG titers were measured using cervical lymph nodes from hamsters as target cells for flow cytometry. Lymphocytes obtained from the lymph nodes were washed with PBS and suspended at a concentration of 10^7 cells/ml. Aliquots of 50 μl containing ~5×10^5 lymphocytes were incubated with 50 μl of diluted sera (diluted 1:25 in phosphate buffered saline) for 30 minutes at 4° C. and then washed twice in 1 ml of PBS. IgM and IgG antibodies were stained by incubating the washed cells for 30 minutes at 4° C. with 50 μl of PBS containing a mixture of labeled goat antibodies specific for rat IgG and rat IgM (Jackson Immunoresearch Labs, Westgrove, Pa.). After staining, the cells were washed twice, fixed in 1% formalin and analyzed on the BPICS-C flow cytometry (Coulter Company), according to Williams et al., Transplantation, 57:1223-1231 (1994).

renal allograft = settings: cited from earlier work
[6] = to open-ring form A771726; cited from earlier work
SLE in MRL/lpr mice = settings: cited from earlier work
glomerulonephritis = settings: oral 2 mg/kg/day, prophylactic or therapeutic; cited from earlier work
allogeneic kidney graft = settings: cited from earlier work
cytotoxic antibody = assay: complement-mediated cytotoxicity assay, cardiac xenografts; format: in vivo, rat; settings: leflunomide therapy

Which results are given for `Cc1oncc1C(=O)Nc1ccc(C(F)(F)F)cc1` [leflunomide, N-(4-trifluoromethylphenyl)-5-methylisoxazol-4-carboxamide]?
graft vascular disease ([1]; day 50): had no graft vascular disease; antibodies directed against BN grafts in sera [1]: contained no antibodies directed against the BN grafts; inhibition of EGF receptor kinase (EGF receptor kinase): inhibits the intrinsic EGF receptor kinase; prolongation of survival ([2]; 5 mg/kg by gavage, 7- or 14-day course from day of transplantation): approximately equal prolongations of survival; mononuclear leukocyte infiltration ([2]; started at day 4): completely cleared the mononuclear leukocyte infiltration on histological analysis; mean survival time of the cardiac allografts ([2]; started at day 4 post-transplantation): 25.4±1.4 days; mean survival time of the cardiac allografts ([2]; started at day 6 post-transplantation): 16.3±8.5 days; allospecific IgG response ([2]; started day 4): The generation of allospecific IgG response was inhibited; allospecific cytotoxic antibody production (primarily IgM) ([2]; started day 4): abrupt drop to near background levels after 7 days of treatment; reversal of acute rejection ([2]; therapy post-transplantation): effective in reversing acute rejection as determined by both functional and histological criteria; effect on chronic rejection process ([3]; 5 mg/kg (each) from day 30, 10 mg/kg (each) day 60 to 90): able to halt the progression of chronic rejection and partially reverse the process of arterial thickening; mononuclear cell infiltration, myocardial fibrosis, smooth muscle proliferation ([3]; 5 mg/kg (each) from day 30, 10 mg/kg (each) day 60 to 90, day 90): Interstitial mononuclear cell infiltration and myocardial fibrosis were mild; arterial intimal thickening, change vs control ([3]; 5 mg/kg (each) from day 30, day 60): did not significantly improve by day 60; Histological Scores (mean vascular histologic score) ([3]; Lef 5 mg/kg day 30 to 60, then 10 mg/kg day 60 to 90, group 8): 1.38±0.92; Histological Scores (mean vascular histologic score) ([3]; Lef 5 mg/kg day 30 to 60, then 10 mg/kg day 60 to 90, group 8, listed as Lef): 1.4 ± 0.9; Histological Scores (mean vascular histologic score) ([3]; Lef 5 mg/kg from day 30 to day 60, group 5, sacrificed day 60): 1.55±0.53; Histological Scores (mean vascular histologic score) ([3]; Lef 5 mg/kg from day 30 to day 60, group 5, sacrificed day 60, listed as Lef): 1.6 ± 0.5; prevention of tubulointerstitial nephritis [4]: very effective; reduction of incidence of auto-antibody formation [4]: much more effective than any of the other drugs in reducing the incidence of auto-antibody formation; prevention of tubulointerstitial nephritis ([4]; listed as Leflunomide): as effective as Cyclosporine A, and was more effective than prednisolone, naproxen or indomethacin in preventing disease development; graft survival vs controls (cardiac allograft; 0.63 to 10 mg/kg/day for 7 days): significantly prolonged graft survival compared to controls; animals with indefinite graft survival (>100 days) (cardiac allograft; 21 days, leflunomide 5 mg/kg/day): three of six animals; IgG levels [5]: IgG levels remained at baseline; IgM titres [5]: delayed and slowed the rise of IgM titres, but did not completely suppress IgM rise; survival (renal allograft; 5 or 10 mg/kg/day by gavage for 30 days): more than 60 days; protection (renal allograft; BN-LEW renal transplant): very similar to the protection attainable with CsA treatment; conversion after administration [6]: rapidly convened to its active open-ring form; ability to inhibit SLE relative to Cyclosporine A (SLE in MRL/lpr mice; MRL/lpr mice): equal or superior to Cyclosporine A (CsA) in ability to inhibit SLE; disease progression, lymphocyte accumulation, T-cell ratio (SLE in MRL/lpr mice; MRL/lpr mice): stops disease progression and prevents the development of glomerulonephritis; disease progression, lymphocyte accumulation, T-cell ratio (SLE in MRL/lpr mice; MRL/lpr mice, listed as Leflunomide): suppresses the intense accumulation of lymphocytes in the lymph nodes and spleen of these mice, restores the T-cell helper/suppressor ratio to normal values, and restores the depressed proliferative response of lymphocytes and macrophages; animals still alive (SLE in MRL/lpr mice; at the end of 10 weeks, mice with elevated urine protein): 90%; effect on glomerulonephritis (glomerulonephritis): effective in both preventing and curing glomerulonephritis; also recorded: significant decrease in total urinary protein, plasma cholesterol and fibrinogen, as well as decreased deposition of fibrin, immunoglobulin G and complement C3; toxicity in dogs (allogeneic kidney graft; dog, in vivo): limited, however, by toxicity due to the canine's N-acetylation enzyme deficiency; survival (allogeneic kidney graft; leflunomide 8 mg/kg daily): 27 ± 1 days; survival (allogeneic kidney graft; leflunomide 16 mg/kg daily): 21 ± 2 days; time to rejection after withdrawal of leflunomide (allogeneic kidney graft; withdrawn from two dogs after 100 days, combination-treated group): ≤ 14 days; cytotoxic antibody titres (cytotoxic antibody): prevented or reversed the cytotoxic antibody titres
